{
  "source": "patent US20210278408A1",
  "about": "“METHODS OF TREATMENT OF CANCER WITH SUBSTITUTED PYRROLE AND PYRAZOLE COMPOUNDS AND DIAGNOSIS OF CANCERS SUSCEPTIBLE TO TREATMENT WITH SUBSTITUTED PYRROLE AND PYRAZOLE COMPOUNDS” (Bantam Pharmaceutical, LLC, priority 2018, published 2021)",
  "key": {"[1]": {"tested_on": "Gene Expression", "assay": "Transcriptomic screen", "assay_type": "cell-based", "experimental": "(§1) Mechanism of Action Screens A series of broad high content imaging, transcriptomic, metabolomic, and CRISPR KO screens were performed to link Compound A197 activity to a probable method of action. The outcome of these screens included two notable observations."}, "[2]": {"tested_on": "HDAC", "assay": "In vitro assays: HDAC", "assay_type": "biochemical", "experimental": "as §1"}, "[3]": {"tested_on": "ATF4, ATF6, ERN1/XBP1 and cell cycle regulated genes", "assay": "mRNA expression profiling by QPCR in NHLF, HCT-116, HAP1 and SU-DHL-2", "assay_type": "cell-based, human", "details": "5 μM, 8 hrs", "experimental": "FIG. 11 is a graph of expression of ATF4, ATF6, Xbp1, and cell cycle regulated genes in Compound A197 responsive cell lines. All cells were treated with 5 […] Compound A197 for 8 hrs, then RNA was isolated and specific gene expression determined by qPCR. All data are represented as Log2 Fc. *=p<0.05, n=3.\nATF4-mediated gene expression profile is induced by compounds. ATF4 activation is closely aligned with activation of ER stress and the related TF's ATF6, ERN1 and XBP1. To determine the role of each transcription factor, a set of fifteen genes were selected to evaluate the specificity of the response as related ATF4 and to other transcription factors. […] These genes can be regulated in a variety of ways and so reflect an outcome of compound action: cell cycle arrest.\nFour cell lines were chosen for gene expression profiling. Normal Human Lung Fibroblasts were chosen as an example of a non-responsive cell line. The colorectal cancer cell line HCT-116 and the chronic myelogenous leukemia line HAP1 were chosen as examples of cell lines responsive to compound undergoing growth arrest. The diffuse large B-Cell lymphoma line SU-DHL-2 was chosen as a cell line undergoing growth arrest and apoptosis. […] RNA recovery is determined using a NanoDrop nucleic acid quantification device. […] The change in gene expression relative to vehicle is calculated using Expression Analysis software (ThermoFisher)."}, "[4]": {"tested_on": "HCT-116", "assay": "Cell proliferation, Cell-Titre Glo, 72 hours: HCT-116", "assay_type": "cell-based", "details": "Homo sapiens, mean ± std. dev.", "experimental": "NHLF, BJAB, SU-DHL-2, and HCT-116 cells were treated with Compound A197 for 4 hours prior to lysate harvest. Total cellular glutathione (GSH) levels were determined using a luminescent endpoint (GSH-Glo, Promega). Cell proliferation was determined using Cell-Titre Glo following 72 hours of compound treatment. All data shown is mean±SD of three biological replicates."}, "[5]": {"tested_on": "Cytoskeletal", "assay": "High content imaging screen: cytoskeletal", "assay_type": "cell-based", "details": "actin or microtubule localization or structure", "experimental": "as §1"}},
  "note": "“Also recorded” adds a separate entry of the source.",
  "data": [
    {"smiles": "Cc1nn(-c2nc(-c3ccc(C(F)(F)F)cc3)c(SC(C)C)s2)c(C(=O)O)c1-c1cccc(F)c1", "note": "[Compound A197, 4-(3-fluorophenyl)-1-(5-(isopropylthio)-4-(4-(trifluoromethyl)phenyl)thiazol-2-yl)-3-methyl-1H-pyrazole-5-carboxylic acid]", "values": [
      {"measurement": "Outcome: Gene Expression", "setting": "[1]", "result": "induced the ATF4 pathway; also recorded: Induction of ATF pathway; no effect on cell cycle gene"},
      {"measurement": "Outcome: HDAC", "setting": "[2]", "result": "No activity on any HDAC"},
      {"measurement": "CDKN1A (p21/Waf1) mRNA expression", "setting": "[3]", "result": "increased"},
      {"measurement": "induction of ATF4, ATF6 or IRE1/Xbp1 regulated genes", "setting": "[3]; HCT-116, HAP-1, SU-DHL-2, NHLF", "result": "preferentially induces ATF4, but not ATF6 or IRE1/Xbp1 regulated genes in three responsive tumor cell lines (HCT-116, HAP-1 and SU-DHL-2) but not in primary NHLF"},
      {"measurement": "IC50", "setting": "[4]", "result": "530 ± 210", "unit": "nM"},
      {"measurement": "Outcome: Cytoskeletal", "setting": "[5]", "result": "No obvious changes in actin or microtubule localization"}
    ]}
  ]
}
